Test results taken from US20140370129A1, “DOSING REGIMEN AND METHOD FOR TREATING CANCER USING A COIX SEED OIL EMULSION” (Zhejiang Kanglaite Group Co., Ltd., priority 2013, published 2014).

How the values were obtained:
[1] = test system: advanced or metastatic adenocarcinoma of the pancreas; settings: first-line therapy; P=0.003; cited from earlier work
[2] = test system: locally advanced or metastatic pancreatic cancer; assay: Phase 2b study of Kanglaite Injection plus gemcitabine vs gemcitabine alone; format: in vivo
Excerpt: Efficacy of the treatment may be monitored, for example, by CT scans of the patients to determine growth or progression of the tumor, or Karnofsky performance. The Karnofsky Performance Scale Index allows patients to be classified on a scale of 0 to 100 as to their functional impairment, with zero indicating death and 100 indicating no patient complaints and no evidence of disease. The primary efficacy outcome measure for the efficacy trial described in Example 2 was Progression Free Survival (PFS). PFS includes patient deaths and assumes that death is related to progression of cancer, a reasonable assumption with pancreatic cancer. PFS is defined as the time interval from randomization to objective tumor progression or death.
As shown in Example 2, efficacy of the treatment was evaluated in part using RECIST 1.1 RECIST refers to the Response Evaluation Criteria for Solid Tumors assessment tool an involves measuring tumors (lesions) in patient using, for example, CT or MRI. As noted above, RECIST Version 1.1 was utilized in evaluating patient responses.
A phase 2b, multi-center, randomized, open-label clinical trial compared the effect of gemcitabine in combination with KLTi to gemcitabine alone in patients with locally advanced or metastatic pancreatic cancer, not amenable to curative surgical resection.
A total of 41 patients were randomized to Cohort 1 with 38 included in the safety population, specifying all patients who received at least one dose of study drug. Thirty-seven of the 38 patients had been diagnosed as having Stage IV pancreatic cancer. Twenty-six patients were assigned to Group 1 to receive both KLTi and gemcitabine while 12 patients were assigned to Group 2 to receive only gemcitabine.
All patients received marketed gemcitabine, which was administered at 1000 mg/m^2 over a minimum of 30 min and a maximum of 38 min once weekly for 3 weeks, followed by a rest period of 13 days before the next gemcitabine dose. Based on a chemotherapy cycle of 28 days (4 weeks), gemcitabine was given on Days 1, 8, and 15 of the 28-day cycle. For patients in Group 1, KLTi infusion was administered on each of Days 1-5 for each of those same 3 weeks (i.e., Days 1-5, Days 8-12 and Days 15-19). Patients were then rested for the remaining 9 days of the cycle (Days 20-28).
Dosing of Group 1 patients included administration of KLTi at a dose of 30 g/day provided as a 300 mL volume. For the first 2 KLTi infusions for each patient, the infusion rate was started at 1.0 mL/min for the first 15 min, and then increased to 150 mL/hr until the KLTi was completely infused if no safety issues were apparent. Once safety was established in the first 2 infusions, all subsequent KLTi infusions were given at a target rate of 150 m L/hr. Beginning with cycle 2, the target rate of infusion may, however, have been increased to […]. The total infusion time for 300 mL of KLTi was therefore expected to be approximately 2 hr for Cycle 1 and approximately 90 min for all remaining cycles.
Progression Free Survival (PFS) was calculated from the date of randomization to the date of objective disease progression or death. Patients without objective disease progression or death were censored at their last evaluable tumor assessment. […] This significant increase in PFS in Group 1 as compared to Group 2 is indicative of the significant advantage of administering KLTi in combination to gemcidabine as compared to administering gemcidabine alone to treat pancreatic cancer.

[3] = test system: advanced or metastatic pancreatic carcinomas; settings: erlotinib versus placebo, with gemcitabine; cited from earlier work
[4] = test system: metastatic pancreatic adenocarcinoma; settings: not previously treated with chemotherapy; cited from earlier work
pancreatic cancer = settings: human, in vivo; cited from earlier work
[5] = RECIST 1.1, Efficacy Evaluable Population, n (%)
[6] = RECIST 1.1, Intent To Treat Population, n (%)

## O=c1[nH]cc(F)c(=O)[nH]1 [5-FU, fluorouracil]
[1]
  1-year survival: 2%

## Nc1ccn([C@@H]2O[C@H](CO)[C@@H](O)C2(F)F)c(=O)n1 [Gemcidabine, gemcitabine]
[2]; 1 month
  PFS Rate 1 month: 75%
[2]; 1 year
  PFS Rate 1 year: 8.3%
[2]; 3 months
  PFS Rate 3 months: 25%
[2]; 4 months
  PFS Rate 4 months: 25%
[2]; 6 months
  PFS Rate 6 months: 8.3%
[2]; Progression Free Survival, randomization to objective progression or death, KLTi 30 g/day IV Days 1-5, 8-12, 15-19 with gemcitabine 1000 mg/m^2 Days 1, 8, 15 of 28-day cycle
  Median PFS: 57.5 days
[2]; [5]
  CR + PR (%): 1 (11.1%)
  Complete Response (CR): 0 (0%)
  Partial Response (PR): 1 (11.1%)
  Progressive Disease (PD): 6 (66.7%)
[2]; [6]
  Complete Response (CR): 0 (0%)
  Partial Response (PR): 1 (7.7%)
  Progressive Disease (PD): 6 (46.2%)
[1]
  1-year survival: 18%
[3]
  1-year survival rate: 17%
  median survival: 5.9 months
[4]
  median overall survival: 6.8 months
Pancreatic cancer
  alive at the end of the first year: 22%
